Laboratory results published in patent publication US20050191247A1, “Chlorhexidine compositions” (priority 2004, published 2005).
Read-outs that look alike come from different tables or passages of the source. Peptide text beside a SMILES is read from it.

Assays:
Suspensions of S. mutans = assay: Bactericidal activity in suspensions of S. mutans; assay type: cell-based, Streptococcus mutans; conditions: within one hour of incubation; buffer control 10^6 cfu/ml
[1] = tested on: Streptococcus mutans biofilms; assay: Test A: bactericidal activity in bacterial biofilm system; assay type: cell-based; conditions: flavoring or sweetening agent added to chlorhexidine composition
Method: Rinse formulations were assessed for their bactericidal activity in a laboratory bacterial biofilm system. Streptococcus mutans biofilms were grown on slides in Trypticase Soy Broth supplemented with 0.5% Yeast Extract (TSB-YE), 1.0% glucose and 2.0% sucrose, and incubated for 48 hr in 5% CO2 at 37° C. Biofilms were exposed to the different formulations for 30 seconds with slow stirring. Biofilms were then extensively washed, harvested, and resuspended in fresh media. Samples were spiral-plated on Mitis-Salivarius agar. Numbers of viable bacteria were determined following standard spiral plating methodology.
The first series of experiments explored the effect of combinations of chlorhexidine-Cu^++ and chlorhexidine-Zn^++ on biofilms of Streptococcus mutans. The chlorhexidine (CHX) used in the experiments depicted in FIG. 1 was made by diluting a chlorhexidine gluconate stock solution (Chlorhexidine gluconate 20% solution, B.P. supplied by Medisca, Inc., 661 Route #3, Unit C, Plattsburg, N.Y. 12901. Telephone 1-800-932-1039) with ultrapure water to form a 0.12% chlorhexidine digluconate solution. […]
Biofilms of S. mutans were made by immersing slides in Trypticase Soy Broth-Yeast Extract (TSB-YE) supplemented with 1.0% glucose and 2.0% sucrose. […] Numbers of viable cells were determined by standard Spiral-plating methodology. […]

[2] = cited from earlier work
S. mutans = assay: Test B: effect on ability of S. mutans to produce acid (culture pH over time); assay type: cell-based, Streptococcus mutans; conditions: chlorhexidine 0.06%, cupric acetate and zinc chloride 0.1% w/v; TSB-YE with 1.0% glucose
Method: Some oral bacteria are believed to cause cavities by producing acid in the mouth. Therefore, the ability of a composition to prevent and treat cavities can be measured by determining its effects on bacterial acid production.
Accordingly, the effect of representative compositions on the ability of S. mutans to produce acid was also assessed. Biofilms were exposed to CHX-Cu^++ or CHX-Zn^++ as described, then washed, harvested, and resuspended in sterile TSB-YE supplemented with 1.0% glucose at standardized concentrations. Changes in culture pH were measured over time. Representative results of these studies are illustrated in FIG. 3.
The chlorhexidine (CHX) used in the experiments depicted in FIG. 3 was made by diluting a chlorhexidine gluconate stock solution (Chlorhexidine gluconate 20% solution, B.P. supplied by Medisca, Inc., 661 Route #3, Unit C, Plattsburg, N.Y. 12901. Telephone 1-800-932-1039) with ultrapure water to form a 0.12% chlorhexidine digluconate solution. This strength mimics the concentration of chlorhexidine gluconate found in commercial rinses (Peridex®—Zila Pharmaceuticals 5227 N. 7th Street, Phoenix, Ariz. 85014. Telephone (602) 266-6700) available in the United States.
Chlorhexidine was at a concentration of 0.06%, and cupric acetate and zinc chloride were at concentrations of 0.1% w/v. Exposure of chlorhexidine alone had little effect on acid production. […]

[3] = 0.12% rinse; Drug Facts and Comparisons, 1999; cited from earlier work

N=C(NCCCCCCNC(=N)NC(=N)Nc1ccc(Cl)cc1)NC(=N)Nc1ccc(Cl)cc1.O=C(O)[C@H](O)[C@@H](O)[C@H](O)[C@H](O)CO.O=C(O)[C@H](O)[C@@H](O)[C@H](O)[C@H](O)CO [Chlorhexidine gluconate (0.12% CHX)]
viable count after exposure (Suspensions of S. mutans): 0 cfu/ml

COC(=O)[C@H](Cc1ccccc1)NC(=O)[C@@H](N)CC(=O)O [aspartame] (HELM PEPTIDE1{D.F.[CO[*:1]]}$$$$V2.0)
effect of additive on the antibacterial activity of the chlorhexidine oral composition [1]: do not significantly decrease
solubility in water ([2]; 20° C.): approximately 1%
solubility in water ([2]; 50° C.): ~3%

[H]/N=C(\N/C(=N/[H])NCCCCCCNC(=N)NC(=N)Nc1ccc(Cl)cc1)Nc1ccc(Cl)cc1 [chlorhexidine]
effect on acid production (pH curves) (S. mutans): little effect
chlorhexidine retained in the oral cavity following rinsing [3]: Approximately 30%
